# Where “and” joins values, the source holds several entries; their conditions need not be identical. Equal values may be shown once.
# Experiments:
# NIH3T3 = assay: Intracellular proteolysis of long half-life proteins; format: cell-based, mouse
# Method: Confluent cells were labelled with [^3H]leucine (2μCi/ml) (NEN-PerkinElmer Life Sciences) for 48 h and then extensively washed and maintained in medium with an excess of unlabeled leucine. Proteolysis was calculated from aliquots of the medium taken at different times and precipitated in trichloroacetic acid, as the amount of acid-precipitable radioactivity transformed to acid-soluble radioactivity at each time. Where indicated cell were treated during the chase with […] leupeptin (Sigma, #108975) and […] NH4Cl (to determine lysosomal degradation) or with 100 μm MRT 68921 dihydrochloride (Tocris, #5780) (to determine macroautophagy degradation).
# [1] = tested on: neuroblastoma cell line N2a expressing the KFERQ-PS-Dendra reporter; assay: CMA activity, KFERQ-PS-Dendra reporter in N2a cells; format: cell-based, mouse; parameters: CMA activity, mean (Fig. S2a): unit not given here
# Method: Cells were transduced with lentivirus carrying the KFERQ-PS-Dendra reporter as before. Cells were photoactivated by exposure to a 3.5 mA (current constant) light emitting diode (LED: Norlux, 405 nm) for 3 min and then plated in glass-bottom 96 well plates. At the desired times, cells were fixed with 4% PFA and imaged using high-content microscopy (Operetta system, Perkin Elmer). Images were quantified using the manufacturer’s software in a minimum of 1,200 cells in 9 independent fields per well. […] This was particularly important in the case of primary human cells where the efficiency of transduction was ~65%. To avoid confounding effects for drug-induced changes in cell volume or adherence to the plate that could bring a fraction of the cells per field outside of focus, we set a threshold to count only […] that have at least 1/10 of the average number of […] detected in the untreated wells for each cell type (3–4 puncta/cell in the case of NIH3T3 and N2a cells and 5 puncta/cell in primary human fibroblasts).
# [2] = tested on: CMA network components in NIH3T3 cells; assay: qPCR of CMA network components and CMA activation score; format: cell-based, mouse; parameters: LAMP2A mRNA level / HSP90AB1 mRNA level / HSP40 mRNA level / RAC1 mRNA level / AKT1 mRNA level / AKT2 mRNA level / CTSA mRNA level / NFATC1 mRNA level / HSC70 mRNA level / NCOR1 mRNA level / NFE2L2 mRNA level / RAB11A mRNA level / RARa mRNA level / HSP90AA1 mRNA level / EEF1A1 mRNA level / RICTOR mRNA level: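 fold of untreated cells after 20 µM for 24 h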; key to CMA activation score: weighted (LAMP-2A ×2), directed (±1) average of CMA network expression;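 on AKT1 mRNA level: fold of untreated cells after 20 µM for 24 h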;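 on AKT2 mRNA level: fold of untreated cells after 20 µM for 24 h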;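 on CTSA mRNA level: fold of untreated cells after 20 µM for 24 h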;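 on HSC70 mRNA level: fold of untreated cells after 20 µM for 24 h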;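 on HSP40 mRNA level: fold of untreated cells after 20 µM for 24 h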;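 on HSP90AA1 mRNA level: fold of untreated cells after 20 µM for 24 h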;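 on HSP90AB1 mRNA level: fold of untreated cells after 20 µM for 24 h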;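 on LAMP2A mRNA level: fold of untreated cells after 20 µM for 24 h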;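 on NCOR1 mRNA level: fold of untreated cells after 20 µM for 24 h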;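 on NFATC1 mRNA level: fold of untreated cells after 20 µM for 24 h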;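 on NFE2L2 mRNA level: fold of untreated cells after 20 µM for 24 h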;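 on PHLPP1 mRNA level: fold of untreated cells after 20 µM for 24 h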;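 on RAB11A mRNA level: fold of untreated cells after 20 µM for 24 h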;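 on RAC1 mRNA level: fold of untreated cells after 20 µM for 24 h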;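 on RARa mRNA level: fold of untreated cells after 20 µM for 24 h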
# Method: RNA was extracted from individual retinas or tissue sections (brain, liver). Total RNA from retinas was extracted using TRIzol Reagent (Invitrogen, # 15596-018), and reverse transcription was performed using the High-Capacity cDNA Reverse Transcription Kit (Applied Biosystems, # 4374966) according to the manufacturer’s instructions. Quantitative real-time PCR was performed in a Light Cycler 480 Instrument (Roche) with Taqman LightCycler 480 probes Master Mix (Roche, #4887301001) using Taqman assays (Life Technologies). For cells in culture, RNA was extracted using RNeasy Plus Mini Kit (Qiagen, #74034), and reverse transcription was performed using Superscript III (Invitrogen, #18080051). Quantitative RT-PCR analysis were performed using Power SYBR Green PCR Master Mix (Applied Biosystems, #4368708) on a StepOne Plus Real-Time PCR System (Applied Biosystems). Mm01184405_m1 probe (Thermofisher) was used for rhodopsin and the sequence of all the other probes used for qPCR is included in Supplementary Table 2.
# CMA index[14] was calculated using data set from[23]–[25]. Briefly, each element of the CMA network[13] has attributed a weight. As LAMP-2A is the rate-limiting component of CMA, it was given a weight of 2. Every other element received a weight of 1. Then, every element was attributed direction score that is +1 or −1 based on the known effect of a given element on CMA activity. The score was then calculated as the weighted/ directed average of expression counts of every element of the CMA network.
# [3] = In vitro stability in human liver microsomes; format: in vitro ADME; settings: in words
# Method: In vitro solubility in the following conditions A) HBSS/HEPES 10 mM/BSA 0.1% pH 6 B) HBSS/HEPES 10 mM/BSA 0.1% pH 7.4 C) TRIS/BSA 0.1% PBS (pH 7.4 and at indicated doses were measured by Nephelometry using the NEPHELOstar Galaxy apparatus (BMG Lab Technologies). In vitro stability in human, mouse and rat liver microsomes and permeability using a bidirectional permeability assay with CaCo-2 cells (pH 6.5/7.4) assays were performed with standard methodology and analyzed by LC-MS/MS. at SIMM-SERVIER joint Biopharmacy Laboratory. ADME properties for CA39 and CA77 were predicted by QikProp (Schrödinger, LLC, Releases 2016-2020) software.
# [4] = Fig. 2d (left), individual replicate values, one sample t test
smiles,measurement,setting,value
Clc1ccc2c(c1)OCC(c1ccc(-c3ccccc3)cc1)=N2 [CA39],duration of the increase in degradation of long-lived proteins,"NIH3T3; NIH3T3, 10 μM",remained upregulated 24 h
same,"Lysosomal proteolysis, Mean (Fig. S3c)",NIH3T3; Time 6,2.60
same,"Lysosomal proteolysis, Mean (Fig. S3c)",NIH3T3; Time 12,7.36
same,"CMA activity, mean relative to concentration 0 = 1 (Fig. S2b)","[1]; 12+12w, concentration 0.2",0.9934
same,"CMA activity, mean relative to concentration 0 = 1 (Fig. S2b)","[1]; 12+12w, concentration 2",0.9832
same,"CMA activity, mean relative to concentration 0 = 1 (Fig. S2b)","[1]; 12+12w, concentration 5",3.155
same,"CMA activity, mean relative to concentration 0 = 1 (Fig. S2b)","[1]; 12+12w, concentration 10",2.605
same,"CMA activity, mean relative to concentration 0 = 1 (Fig. S2b)","[1]; 12+12w, concentration 20",4.196
same,"CMA activity, mean relative to concentration 0 = 1 (Fig. S2b)","[1]; 12+12w, concentration 30",3.752
same,"CMA activity, mean (Fig. S2a)","[1]; 12h, concentration 0.02",3.028
same,"CMA activity, mean (Fig. S2a)","[1]; 12h, concentration 0.2",4.51
same,"CMA activity, mean relative to concentration 0 = 1 (Fig. S2b)","[1]; 12h, concentration 0.2",1.03
same,"CMA activity, mean (Fig. S2a)","[1]; 12h, concentration 2",4.84
same,"CMA activity, mean relative to concentration 0 = 1 (Fig. S2b)","[1]; 12h, concentration 2",1.106
same,"CMA activity, mean (Fig. S2a)","[1]; 12h, concentration 5",10.9424
same,"CMA activity, mean relative to concentration 0 = 1 (Fig. S2b)","[1]; 12h, concentration 5",2.5
same,"CMA activity, mean (Fig. S2a)","[1]; 12h, concentration 10",9.785
same,"CMA activity, mean relative to concentration 0 = 1 (Fig. S2b)","[1]; 12h, concentration 10",2.2356
same,"CMA activity, mean (Fig. S2a)","[1]; 12h, concentration 20",12.4415
same,"CMA activity, mean relative to concentration 0 = 1 (Fig. S2b)","[1]; 12h, concentration 20",2.842
same,"CMA activity, mean (Fig. S2a)","[1]; 12h, concentration 30",12.3771
same,"CMA activity, mean relative to concentration 0 = 1 (Fig. S2b)","[1]; 12h, concentration 30",2.828
same,"CMA activity, mean (Fig. S2a)","[1]; 12h, concentration 40",18.3499
same,"CMA activity, mean (Fig. S2a)","[1]; 12h, concentration 50",17.0288
same,"CMA activity, mean (Fig. S2a)","[1]; 12h, concentration 60",19.2922
same,"CMA activity, mean (Fig. S2a)","[1]; 24h, concentration 0.02",3.481
same,"CMA activity, mean (Fig. S2a)","[1]; 24h, concentration 0.2",5.502
same,"CMA activity, mean relative to concentration 0 = 1 (Fig. S2b)","[1]; 24h, concentration 0.2",1.258
same,"CMA activity, mean (Fig. S2a)","[1]; 24h, concentration 2",4.784
same,"CMA activity, mean relative to concentration 0 = 1 (Fig. S2b)","[1]; 24h, concentration 2",1.094
same,"CMA activity, mean (Fig. S2a)","[1]; 24h, concentration 5",12.5789
same,"CMA activity, mean relative to concentration 0 = 1 (Fig. S2b)","[1]; 24h, concentration 5",2.876
same,"CMA activity, mean (Fig. S2a)","[1]; 24h, concentration 10",14.7898
same,"CMA activity, mean relative to concentration 0 = 1 (Fig. S2b)","[1]; 24h, concentration 10",3.382
same,"CMA activity, mean (Fig. S2a)","[1]; 24h, concentration 20",22.8096
same,"CMA activity, mean relative to concentration 0 = 1 (Fig. S2b)","[1]; 24h, concentration 20",5.216
same,"CMA activity, mean (Fig. S2a)","[1]; 24h, concentration 30",25.6157
same,"CMA activity, mean relative to concentration 0 = 1 (Fig. S2b)","[1]; 24h, concentration 30",5.858
same,"CMA activity, mean (Fig. S2a)","[1]; 24h, concentration 40",31.0418
same,"CMA activity, mean (Fig. S2a)","[1]; 24h, concentration 50",34.0174
same,"CMA activity, mean (Fig. S2a)","[1]; 24h, concentration 60",32.9288
same,CMA activation in neuron-related mouse cells,[1]; in words,efficiently activated CMA
same,AKT1 mRNA level,[2]; [4],1.27 and 1.30 and 1.45 and 1.16 and 1.03 and 1.84 and 1.28
same,AKT2 mRNA level,[2]; [4],1.32 and 1.30 and 1.24 and 1.01 and 1.08 and 1.88 and 1.04
same,CTSA mRNA level,[2]; [4],1.42 and 1.82 and 1.76 and 1.16 and 1.21 and 1.47 and 1.18
same,EEF1A1 mRNA level,[2]; [4],1.63 and 1.19 and 0.99 and 1.36 and 0.64 and 1.12
same,HSC70 mRNA level,[2]; [4],1.22 and 1.61 and 1.44 and 1.21 and 1.29 and 2.10 and 1.42
same,HSP40 mRNA level,[2]; [4],1.09 and 1.23 and 1.16 and 0.96 and 0.74 and 1.03
same,HSP90AA1 mRNA level,[2]; [4],1.17 and 1.01 and 0.95 and 0.86 and 0.74 and 0.72
same,HSP90AB1 mRNA level,[2]; [4],1.00 and 0.99 and 0.98 and 1.04 and 0.83 and 0.75
same,LAMP2A mRNA level,[2]; [4],1.75 and 1.44 and 1.56 and 1.42 and 1.32 and 1.48
same,NCOR1 mRNA level,[2]; [4],1.09 and 1.39 and 1.22 and 0.82 and 0.71 and 0.95 and 0.89
same,NFATC1 mRNA level,[2]; [4],1.14 and 1.53 and 1.30 and 0.80 and 1.03 and 1.25 and 1.28
same,NFE2L2 mRNA level,[2]; [4],0.96 and 1.16 and 1.02 and 0.72 and 0.80 and 1.15 and 1.10
same,PHLPP1 mRNA level,[2]; [4],1.27 and 1.65 and 1.69 and 3.21 and 1.20 and 1.48 and 1.51
same,RAB11A mRNA level,[2]; [4],1.05 and 1.19 and 0.95 and 0.84 and 1.00 and 1.21 and 1.07
same,RAC1 mRNA level,[2]; [4],1.38 and 1.77 and 1.43 and 1.78 and 1.31 and 1.54 and 1.42
same,RARa mRNA level,[2]; [4],0.55 and 1.08 and 1.05 and 0.89 and 0.84 and 0.93 and 0.88
same,RICTOR mRNA level,[2]; [4],1.22 and 1.28 and 0.83 and 0.86 and 1.60 and 1.10
same,CMA activation score,"[2]; Fig. 2d (right), individual replicate values",0.6107 and 0.1532 and -0.08737 and 0.08765
same,predicted CMA score compared to AR7,"[2]; NIH3T3, 20μM for 24 h",higher
same,metabolic stability with human liver microsomes,[3],high to intermediate
